Reference: patent US10681909B2, “Herbicidal triazoles” (FMC Corporation, priority 2014, dated 2020)

What was measured:
sedge, umbrella = assay: Test B flooded paddy test; type: in vivo, Cyperus difformis; conditions: applied to paddy water at 2-leaf stage, visual rating after 13 to 15 d, scale 0 (no effect) to 100 (complete control)
Text: (§1) At time of treatment, test pots were flooded to 3 cm above the soil surface, treated by application of test compounds directly to the paddy water, and then maintained at that water depth for the duration of the test. Treated plants and controls were maintained in a greenhouse for 13 to 15 d, after which time all species were compared to controls and visually evaluated. […] A dash (-) response means no test result.

foxtail, giant [1] = assay: Test A preemergence; type: in vivo, Setaria faberii; conditions: 0 to 100 scale (0 no effect, 100 complete control)
How it was run: (§2)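 Test chemicals in a non-phytotoxic solvent with surfactant were applied as a directed soil spray preemergence to seeds sown in loam/sand. Postemergence sprays went to plants 2–10 cm tall at the one- to two-leaf stage. A dash means no result.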

corn [2] = assay: Test A postemergence; type: in vivo, Zea mays; conditions: 0 to 100 scale (0 no effect, 100 complete control), approx. 10 d
How it was run: as §2

ducksalad = assay: Test B flooded paddy test; type: in vivo, Heteranthera limosa; conditions: applied to paddy water at 2-leaf stage, visual rating after 13 to 15 d, scale 0 (no effect) to 100 (complete control)
Text: as §1

pigweed [3] = assay: Test A postemergence; type: in vivo, Amaranthus retroflexus; conditions: 0 to 100 scale (0 no effect, 100 complete control), approx. 10 d
How it was run: as §2

foxtail, giant [4] = assay: Test A postemergence; type: in vivo, Setaria faberii; conditions: 0 to 100 scale (0 no effect, 100 complete control), approx. 10 d
How it was run: as §2

barnyardgrass [5] = assay: Test A preemergence; type: in vivo, Echinochloa crus-galli; conditions: 0 to 100 scale (0 no effect, 100 complete control)
How it was run: as §2

rice = assay: Test B flooded paddy test; type: in vivo, Oryza sativa; conditions: applied to paddy water at 2-leaf stage, visual rating after 13 to 15 d, scale 0 (no effect) to 100 (complete control)
Text: as §1

barnyardgrass [6] = assay: Test A postemergence; type: in vivo, Echinochloa crus-galli; conditions: 0 to 100 scale (0 no effect, 100 complete control), approx. 10 d
How it was run: as §2

pigweed [7] = assay: Test A preemergence; type: in vivo, Amaranthus retroflexus; conditions: 0 to 100 scale (0 no effect, 100 complete control)
How it was run: as §2

morningglory [8] = assay: Test A preemergence; type: in vivo, Ipomoea spp.; conditions: 0 to 100 scale (0 no effect, 100 complete control)
Text: (§3) Seeds of plant species selected from barnyardgrass (Echinochloa crus-galli), crabgrass, large (large crabgrass, Digitaria sanguinalis), kochia (Kochia scoparia), ragweed (common ragweed, Ambrosia elatior), foxtail, giant (giant foxtail, Setaria faberii), morningglory (Ipomoea spp.), pigweed (Amaranthus retroflexus), velvetleaf (Abutilon theophrasti), ryegrass, Italian (Italian ryegrass, Lolium multiflorum), wheat (Triticum aestivum), and corn (Zea mays) were planted into a blend of loam soil and sand and treated preemergence with a directed soil spray using test chemicals formulated in a non-phytotoxic solvent mixture which included a surfactant. At the same time, plants selected from these crop and weed species and also blackgrass (Alopecurus myosuroides), and galium (catchweed bedstraw, Galium aparine), were planted in pots containing the same blend of loam soil and sand and treated with postemergence applications of test chemicals formulated in the same manner. Plants ranged in height from 2 to 10 cm and were in the one- to two-leaf stage for the postemergence treatment. […] A dash (-) response means no test result.

wheat [9] = assay: Test A preemergence; type: in vivo, Triticum aestivum; conditions: 0 to 100 scale (0 no effect, 100 complete control)
Text: as §3

wheat [10] = assay: Test A postemergence; type: in vivo, Triticum aestivum; conditions: 0 to 100 scale (0 no effect, 100 complete control), approx. 10 d
How it was run: as §2

barnyardgrass [11] = assay: Test B flooded paddy test; type: in vivo, Echinochloa crus-galli; conditions: applied to paddy water at 2-leaf stage, visual rating after 13 to 15 d, scale 0 (no effect) to 100 (complete control)
Text: as §1

velvetleaf [12] = assay: Test A postemergence; type: in vivo, Abutilon theophrasti; conditions: 0 to 100 scale (0 no effect, 100 complete control), approx. 10 d
Text: as §3

morningglory [13] = assay: Test A postemergence; type: in vivo, Ipomoea spp.; conditions: 0 to 100 scale (0 no effect, 100 complete control), approx. 10 d
Text: as §3

crabgrass, large [14] = assay: Test A preemergence; type: in vivo, Digitaria sanguinalis; conditions: 0 to 100 scale (0 no effect, 100 complete control)
Text: as §3

crabgrass, large [15] = assay: Test A postemergence; type: in vivo, Digitaria sanguinalis; conditions: 0 to 100 scale (0 no effect, 100 complete control), approx. 10 d
Text: as §3

velvetleaf [16] = assay: Test A preemergence; type: in vivo, Abutilon theophrasti; conditions: 0 to 100 scale (0 no effect, 100 complete control)
Text: as §3

corn [17] = assay: Test A preemergence; type: in vivo, Zea mays; conditions: 0 to 100 scale (0 no effect, 100 complete control)
Text: as §3

CCCOc1nc(-c2ccc(F)cc2)nn1Cc1ccnc(C(F)(F)F)c1 [Compound 10]
Plant response rating, Sedge, Umbrella, Flood (sedge, umbrella; 125 g ai/ha): 80
Plant response rating, Foxtail, Giant (foxtail, giant [1]; 125 g ai/ha): 100
Plant response rating, Foxtail, Giant (foxtail, giant [1]; 500 g ai/ha, approx. 10 d): 100
Plant response rating, Corn (corn [2]; 125 g ai/ha): 20
Plant response rating, Corn (corn [2]; 500 g ai/ha): 30
Plant response rating, Ducksalad, Flood (ducksalad; 125 g ai/ha): 70
Plant response rating, Pigweed (pigweed [3]; 125 g ai/ha): 100
Plant response rating, Pigweed (pigweed [3]; 500 g ai/ha): 100
Plant response rating, Foxtail, Giant (foxtail, giant [4]; 125 g ai/ha): 50
Plant response rating, Foxtail, Giant (foxtail, giant [4]; 500 g ai/ha): 90
Plant response rating, Barnyardgrass (barnyardgrass [5]; 125 g ai/ha): 30
Plant response rating, Barnyardgrass (barnyardgrass [5]; 500 g ai/ha, approx. 10 d): 100
Plant response rating, Rice, Flood (rice; 125 g ai/ha): 20
Plant response rating, Barnyardgrass (barnyardgrass [6]; 125 g ai/ha): 40
Plant response rating, Barnyardgrass (barnyardgrass [6]; 500 g ai/ha): 80
Plant response rating, Pigweed (pigweed [7]; 125 g ai/ha): 100
Plant response rating, Pigweed (pigweed [7]; 500 g ai/ha, approx. 10 d): 100
Plant response rating, Morningglory (morningglory [8]; 125 g ai/ha): 10
Plant response rating, Morningglory (morningglory [8]; 500 g ai/ha, approx. 10 d): 20
Plant response rating, Wheat (wheat [9]; 125 g ai/ha): 0
Plant response rating, Wheat (wheat [9]; 500 g ai/ha, approx. 10 d): 20
Plant response rating, Wheat (wheat [10]; 125 g ai/ha): 10
Plant response rating, Wheat (wheat [10]; 500 g ai/ha): 10
Plant response rating, Barnyardgrass, Flood (barnyardgrass [11]; 125 g ai/ha): 45
Plant response rating, Velvetleaf (velvetleaf [12]; 125 g ai/ha): 50
Plant response rating, Velvetleaf (velvetleaf [12]; 500 g ai/ha): 80
Plant response rating, Morningglory (morningglory [13]; 125 g ai/ha): 50
Plant response rating, Morningglory (morningglory [13]; 500 g ai/ha): 90
Plant response rating, Crabgrass, Large (crabgrass, large [14]; 125 g ai/ha): 100
Plant response rating, Crabgrass, Large (crabgrass, large [14]; 500 g ai/ha, approx. 10 d): 100
Plant response rating, Crabgrass, Large (crabgrass, large [15]; 125 g ai/ha): 40
Plant response rating, Crabgrass, Large (crabgrass, large [15]; 500 g ai/ha): 90
Plant response rating, Velvetleaf (velvetleaf [16]; 125 g ai/ha): 0
Plant response rating, Velvetleaf (velvetleaf [16]; 500 g ai/ha, approx. 10 d): 30
Plant response rating, Corn (corn [17]; 125 g ai/ha): 0
Plant response rating, Corn (corn [17]; 500 g ai/ha, approx. 10 d): 20

CCc1nc(-c2cccc(C(F)(F)F)c2)nn1Cc1ccnc(C(F)(F)F)c1 [Compound 11]
Plant response rating, Sedge, Umbrella, Flood (sedge, umbrella; 250 g ai/ha): 0
Plant response rating, Foxtail, Giant (foxtail, giant [1]; 125 g ai/ha): 20
Plant response rating, Foxtail, Giant (foxtail, giant [1]; 500 g ai/ha, approx. 10 d): 90
Plant response rating, Corn (corn [2]; 125 g ai/ha): 20
Plant response rating, Corn (corn [2]; 500 g ai/ha): 50
Plant response rating, Ducksalad, Flood (ducksalad; 250 g ai/ha): 0
Plant response rating, Pigweed (pigweed [3]; 125 g ai/ha): 80
Plant response rating, Pigweed (pigweed [3]; 500 g ai/ha): 100
Plant response rating, Foxtail, Giant (foxtail, giant [4]; 125 g ai/ha): 20
Plant response rating, Foxtail, Giant (foxtail, giant [4]; 500 g ai/ha): 60
Plant response rating, Barnyardgrass (barnyardgrass [5]; 125 g ai/ha): 0
Plant response rating, Barnyardgrass (barnyardgrass [5]; 500 g ai/ha, approx. 10 d): 30
Plant response rating, Rice, Flood (rice; 250 g ai/ha): 0
Plant response rating, Barnyardgrass (barnyardgrass [6]; 125 g ai/ha): 0
Plant response rating, Barnyardgrass (barnyardgrass [6]; 500 g ai/ha): 50
Plant response rating, Pigweed (pigweed [7]; 125 g ai/ha): 30
Plant response rating, Pigweed (pigweed [7]; 500 g ai/ha, approx. 10 d): 100
Plant response rating, Morningglory (morningglory [8]; 125 g ai/ha): 0
Plant response rating, Morningglory (morningglory [8]; 500 g ai/ha, approx. 10 d): 20
Plant response rating, Wheat (wheat [9]; 125 g ai/ha): 0
Plant response rating, Wheat (wheat [9]; 500 g ai/ha, approx. 10 d): 0
Plant response rating, Wheat (wheat [10]; 125 g ai/ha): 10
Plant response rating, Wheat (wheat [10]; 500 g ai/ha): 20
Plant response rating, Barnyardgrass, Flood (barnyardgrass [11]; 250 g ai/ha): 0
Plant response rating, Velvetleaf (velvetleaf [12]; 125 g ai/ha): 50
Plant response rating, Velvetleaf (velvetleaf [12]; 500 g ai/ha): 100
Plant response rating, Morningglory (morningglory [13]; 125 g ai/ha): 80
Plant response rating, Morningglory (morningglory [13]; 500 g ai/ha): 90
Plant response rating, Crabgrass, Large (crabgrass, large [14]; 125 g ai/ha): 20
Plant response rating, Crabgrass, Large (crabgrass, large [14]; 500 g ai/ha, approx. 10 d): 90
Plant response rating, Crabgrass, Large (crabgrass, large [15]; 125 g ai/ha): 20
Plant response rating, Crabgrass, Large (crabgrass, large [15]; 500 g ai/ha): 60
Plant response rating, Velvetleaf (velvetleaf [16]; 125 g ai/ha): 0
Plant response rating, Velvetleaf (velvetleaf [16]; 500 g ai/ha, approx. 10 d): 0
Plant response rating, Corn (corn [17]; 125 g ai/ha): 0
Plant response rating, Corn (corn [17]; 500 g ai/ha, approx. 10 d): 0
